The values below come from patent US20260285880A1, “SUBSTITUTED DIHYDROTHIENOPYRIMIDINE COMPOUND, PREPARATION METHOD THEREFOR, AND USE THEREOF” (SHANGHAI YIDI BIOTECHNOLOGY CO., LTD., priority 2023, published 2026).

Molecules are shown by their SMILES. Like-named read-outs stand apart in the source and are kept apart here.

The target in assay [1] is T1, PDE4B2 (Homo sapiens, UniProt Q07343). The following applies: read-out: PDE4B2 IC50; enzyme assay.
Procedure: (§1) All compounds were dissolved in DMSO into 10 mM or 20 mM stock solutions. The compound to be tested was diluted with DMSO in a 3-fold gradient. 20 nL/well of the compound or a DMSO control was transferred to a 384-well plate by using Echo 550 instrument. The plate was sealed with a membrane and centrifuged for 1 minute. A 2× enzyme solution was prepared with an assay buffer, and 2 uL/well of the 2× enzyme solution was added, followed by equilibration at room temperature for 10 minutes. A 2× Cyclic-3′,5′-AMP substrate solution was prepared with an assay buffer, and 2 uL/well of the 2× substrate solution was added, followed by incubation at room temperature for 60 minutes. 4 μL of AMP-glo reagent was added, followed by incubation at room temperature for 60 minutes. 8 ul of an AMP detection solution was added, followed by incubation at room temperature for 60 minutes. An RLU value was read on Envision 2105 plate reader. The RLU value represents the concentration of the product AMP. Inhibition rate %=(1−(RLUpositive control−RLUcomnpound)/(RLUpositive control−RLUnegative control))*100. The IC50 value was then calculated by Graphpad 8.0 software using Y=Bottom+(Top−Bottom)/(1+10^((LogIC50−X)*HillSlope)).
For assay [2], the target named is T2, Flpin-293-PDE4B2 cells (Homo sapiens, UniProt Q07343). The following applies: for Cell Inhibition % @1 nM: 0.001 µM; for Cell Inhibition % @10 nM: 0.01 µM; for Cell Inhibition % @100 nM: 0.1 µM; for IC50: read-out: PDE4B2 IC50 Cell, Foskolin.
T2 sequence (Q07343 1-564 isoform Q07343-2): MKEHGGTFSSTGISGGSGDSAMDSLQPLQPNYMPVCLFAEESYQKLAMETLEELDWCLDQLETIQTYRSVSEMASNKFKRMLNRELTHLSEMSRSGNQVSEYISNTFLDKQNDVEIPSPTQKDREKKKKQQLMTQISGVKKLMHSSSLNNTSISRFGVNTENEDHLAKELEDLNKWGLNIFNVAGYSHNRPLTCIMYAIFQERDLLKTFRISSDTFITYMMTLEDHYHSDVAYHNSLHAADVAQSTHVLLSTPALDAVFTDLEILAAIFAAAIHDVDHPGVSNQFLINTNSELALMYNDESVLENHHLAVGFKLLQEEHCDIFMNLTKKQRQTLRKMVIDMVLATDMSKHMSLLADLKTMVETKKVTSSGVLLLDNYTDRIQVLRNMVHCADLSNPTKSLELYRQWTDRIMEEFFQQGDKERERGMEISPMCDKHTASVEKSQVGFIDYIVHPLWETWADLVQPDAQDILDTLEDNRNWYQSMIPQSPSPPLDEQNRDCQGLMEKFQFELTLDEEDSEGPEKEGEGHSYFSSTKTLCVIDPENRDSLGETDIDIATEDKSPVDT
Procedure: (§2) All compounds were dissolved in DMSO into 10 mM or 20 mM stock solutions. The compound to be tested was diluted with DMSO with a 3-fold gradient. […] 40 nL/well of the compound or a DMSO control was transferred to a 384-well plate by using Echo 550 instrument. […] The plate was incubated at 37° C. for 30 minutes. Eu-cAMP tracer and Ulight-anti-cAMP were frozen and thawed and diluted in a lysis buffer. 10 of μl Eu-cAMP tracer was added to an experimental well, and 10 μl of Ulight-anti-cAMP was added to the experimental well. The reaction plate was centrifuged at 200 g at room temperature for 30 s and then left to stand at 25° C. for 1 h, and data was then collected by Envision. Inhibition %=100−(Signal compound−SignalAve positive control)/(SignalAve negative control−SignalAve positive control)×100.
The next assay addresses PDE4D2 (Homo sapiens, UniProt Q08499). The assay can be described thus: PDE4D2 enzyme experiment (AMP-Glo).
The target of assay [3] is T1, PDE4B2. The assay can be described thus: biochemical. The following applies: for inhibition at 0.01 µM: read-out: PDE4B2 Enzyme Inhibition % @10 nM; for inhibition at 0.1 µM: read-out: PDE4B2 Enzyme Inhibition % @100 nM.
Procedure: as §1
Assay [4] concerns the target T2, Flpin-293-PDE4B2 cells. The assay can be described thus: cell-based. The following applies: for inhibition at 0.01 µM: read-out: Cell Inhibition % @10 nM, 10 nM, Flpin-293-PDE4B2 cells; for inhibition at 0.1 µM: read-out: Cell Inhibition % @100 nM, 100 nM, Flpin-293-PDE4B2 cells; for inhibition at 0.001 µM: read-out: Cell Inhibition % @1 nM, 1 nM, Flpin-293-PDE4B2 cells.
Procedure: as §2

[5] abbreviates: read-out: PDE4D2 IC50 Binding, enzyme assay.

Chain of PDE4D2 (Q08499 303-809 limits assumed): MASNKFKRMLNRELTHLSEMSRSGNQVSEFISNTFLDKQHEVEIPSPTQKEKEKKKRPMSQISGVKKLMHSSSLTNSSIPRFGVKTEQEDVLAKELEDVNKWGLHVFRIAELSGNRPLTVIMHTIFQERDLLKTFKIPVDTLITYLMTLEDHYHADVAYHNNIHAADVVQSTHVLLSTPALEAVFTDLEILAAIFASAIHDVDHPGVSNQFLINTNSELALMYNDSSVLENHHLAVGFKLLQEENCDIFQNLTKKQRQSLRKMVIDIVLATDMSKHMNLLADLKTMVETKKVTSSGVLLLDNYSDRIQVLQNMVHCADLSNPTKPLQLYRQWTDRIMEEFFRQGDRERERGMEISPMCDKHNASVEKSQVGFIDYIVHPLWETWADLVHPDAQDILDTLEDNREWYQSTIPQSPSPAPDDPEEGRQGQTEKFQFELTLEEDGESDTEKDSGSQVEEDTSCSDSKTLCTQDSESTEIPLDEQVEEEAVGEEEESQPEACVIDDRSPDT
T1 sequence (Q07343 1-564 isoform Q07343-2, species assumed): as the sequence (Q07343 1-564 isoform Q07343-2) above
Procedure for PDE4D2: as §1

Consider `[O-][S+]1CCc2nc(N3CCc4cc(N5CCCC5C(F)(F)F)ccc4C3)nc(NC3(CO)CCC3)c21` (stereo not drawn) [Compound 158], for which, at PDE4B2 [1], the IC50 was determined as 0.273 nM. Moreover, at Flpin-293-PDE4B2 cells [2], the “Cell Inhibition % @1 nM” value was 14.79%, the “Cell Inhibition % @10 nM” value came out at 61.64% and the “Cell Inhibition % @100 nM” value is on record as 99.33%. For the same molecule, the half-inhibitory concentration (IC50) at PDE4D2 (setting [5]) was determined as 0.653 nM.
On to `[O-][S@+]1CCc2nc(N3CCc4c(ccc5[nH]ncc45)C3)nc(NC3(CO)CCC3)c21` [Compound 118, (R)-4-((1-(hydroxymethyl)cyclobutyl)amino)-2-(3,6,8,9-tetrahydro-7H-pyrazolo[4,3-f]isoquinolin-7-yl)-6,7-dihydrothieno[3,2-d]pyrimidine 5-oxide], for which the 50% inhibitory concentration (IC50) on PDE4B2 [3] stood at 0.414 nM; on PDE4D2, 0.748 nM.
With `[O-][S+]1CCc2nc(N3Cc4ccc(C(F)(F)F)cc4C3)nc(NC3(CO)CCC3)c21` (stereo not drawn) [Compound 62], the inhibition at 0.01 µM at Flpin-293-PDE4B2 cells [4] is 29.5%; on PDE4B2 [3], 83.8%. The inhibition at 0.1 µM at Flpin-293-PDE4B2 cells [4] is 69.1%; at PDE4B2 [3], 101%.
`N#CC1CCN(c2ccc3c(c2)CCN(c2nc4c(c(NC5(CO)CCC5)n2)[S+]([O-])CC4)C3)C1` (stereo not drawn) [Compound 160]: the 50% inhibitory concentration (IC50) on PDE4B2 [1] worked out at 0.224 nM. Also, on Flpin-293-PDE4B2 cells [2], the “Cell Inhibition % @1 nM” value stood at 15.06%, the “Cell Inhibition % @10 nM” value amounted to 75.05% and the “Cell Inhibition % @100 nM” value is 99.84%. At PDE4D2 (setting [5]), the IC50 came out at 0.748 nM.
On to `[O-][S+]1CCc2nc(N3CCc4ccc(Br)cc4CC3)nc(NC3(CO)CCC3)c21` (stereo not drawn) [Compound 46], for which the inhibition at 0.01 µM on Flpin-293-PDE4B2 cells [4] amounted to 69.6%; on PDE4B2 [3], 98.9%. Besides, the inhibition at 0.1 µM on Flpin-293-PDE4B2 cells [4] was found to be 99%; on PDE4B2 [3] it was 100%.
With `C[C@H]1c2ccc(N3CCCC3)cc2CCN1c1nc2c(c(NC3(CO)CCC3)n1)[S+]([O-])CC2` (stereo partly drawn) [Compound 167], the IC50 turned out to be 0.087 nM on PDE4B2 [1], 20.7 nM at Flpin-293-PDE4B2 cells [2] and 0.993 nM at PDE4D2 (setting [5]).
With `Cn1nc2c(c1Cl)CN(c1nc3c(c(NC4(CO)CCC4)n1)[S+]([O-])CC3)CC2` (stereo not drawn) [Compound 58], at Flpin-293-PDE4B2 cells [4], the inhibition at 0.01 µM came to 15.9% and the inhibition at 0.1 µM was 57.1%. In addition, at PDE4B2 [3], the inhibition at 0.01 µM was determined as 68.7% and the inhibition at 0.1 µM was determined as 97.5%.
Take `[O-][S+]1CCc2nc(N3CCc4ccsc4C3)nc(NC3(CO)CCC3)c21` (stereo not drawn) [Compound 36]: at Flpin-293-PDE4B2 cells [4], the inhibition at 0.01 µM worked out at 18.1% and the inhibition at 0.1 µM is 66.6%. Moreover, on PDE4B2 [3], the inhibition at 0.01 µM was determined as 74.5% and the inhibition at 0.1 µM was 99%.
In the case of `[O-][S+]1CCc2nc(N3Cc4ccc(Cl)cc4C3)nc(NC3(CO)CCC3)c21` (stereo not drawn) [Compound 33], on Flpin-293-PDE4B2 cells [4], the inhibition at 0.01 µM was determined as 9% and the inhibition at 0.1 µM came to 33.2%. In addition, on PDE4B2 [3], the inhibition at 0.01 µM was determined as 72.3% and the inhibition at 0.1 µM was determined as 98.6%.
For the molecule `C[C@@H]1c2ccc(Cl)cc2CCN1c1nc2c(c(NC3(CO)CCC3)n1)[S@+]([O-])CC2` [Compound 29], the IC50 at Flpin-293-PDE4B2 cells [2] came to 20.9 nM.
On to `[O-][S+]1CCc2nc(N3CCc4sc(Br)cc4C3)nc(NC3(CO)CCC3)c21` (stereo not drawn) [Compound 55], for which, at Flpin-293-PDE4B2 cells [4], the inhibition at 0.01 µM came to 52.8% and the inhibition at 0.1 µM amounted to 93.4%. In addition, on PDE4B2 [3], the inhibition at 0.01 µM turned out to be 93.3% and the inhibition at 0.1 µM stood at 99.9%.
In the case of `O=[N+]([O-])c1ccc2c(c1)CN(c1nc3c(c(NC4(CO)CCC4)n1)[S+]([O-])CC3)C2` (stereo not drawn) [Compound 61], at Flpin-293-PDE4B2 cells [4], the inhibition at 0.01 µM was 17.7% and the inhibition at 0.1 µM was found to be 55.2%. Moreover, on PDE4B2 [3], the inhibition at 0.01 µM amounted to 70.9% and the inhibition at 0.1 µM was 98.2%.
For the molecule `[O-][S+]1CCc2nc(N3CCc4cc(N5CCCC5C(F)(F)F)ccc4C3)nc(NC3(CO)CCC3)c21` (stereo not drawn) [Compound 157], at Flpin-293-PDE4B2 cells [2], the “Cell Inhibition % @10 nM” value came out at 23.21%. Moreover, on Flpin-293-PDE4B2 cells [4], the inhibition at 0.001 µM worked out at 8.27% and the inhibition at 0.1 µM was 83.1%.
As for `COc1ccc2c(c1)CCN(c1nc3c(c(NC4(CO)CCC4)n1)[S+]([O-])CC3)CC2` (stereo not drawn) [Compound 47], on PDE4B2 [3], the inhibition at 0.01 µM amounted to 98.4% and the inhibition at 0.1 µM stood at 100%.
Turning to `[O-][S+]1CCc2nc(N3CCc4cc(N5CCCCC5)ccc4C3)nc(NC3(CO)CCC3)c21` (stereo not drawn) [Compound 143], on PDE4B2 [1], the concentration for half-maximal inhibition (IC50) is 0.113 nM. At Flpin-293-PDE4B2 cells [4], the inhibition at 0.001 µM amounted to 13.9%, the inhibition at 0.01 µM stood at 72.5% and the inhibition at 0.1 µM stood at 100%. In addition, the half-maximal inhibitory concentration (IC50) on PDE4D2 (setting [5]) was 0.252 nM.

The term IC50 denotes the concentration at which inhibition is half-maximal. Broadly, the inhibition is the relative decrease from the control value, in per cent.
